Reference: patent US12404289B2 (Gilead Sciences, Inc., priority 2020, dated 2025)
Where two headings read alike, the source gives them in different places.

Legend:
[1] = tested on: Respiratory syncytial virus (RSV) strain A2; assay: RSV antiviral assay (HEp-2, 96 well); format: cell-based; conditions: Table 3
SARS-CoV-2 = SARS-CoV-2 antiviral assay (A549-hACE2, Nano luciferase); format: cell-based; conditions: Table 4
[2] = read-out: EC50 RSV HEP2 96, HEp-2 cells, RSV A2, MOI=4, 4 days, 96 well
[3] = Severe acute respiratory syndrome coronavirus 2, 48 h, A549-hACE2 cells, SARS-CoV2-Nano, MOI 0.025, 48 h, read-out: EC50 SARS CoV2
[4] = human respiratory syncytial virus, HEp-2, 96 h, read-out: EC50 RSV HEP2 96, HEp-2 cells, RSV A2, MOI=4, 4 days, 96 well
[5] = A549-hACE2 cells, SARS-CoV2-Nano, MOI 0.025, 48 h, read-out: EC50 SARS CoV2

CC(=O)O[C@H]1[C@@H](OC(C)=O)[C@](C#N)(c2ccc3c(N)ncnn23)O[C@@H]1COP(=O)(N[C@@H](C)C(=O)OC1CCC1)Oc1ccc(C2CC2)cc1 (single isomer, unassigned) [Example 53b] showed an EC50 [1, 2] of 21.2 nM and an EC50 (SARS-CoV-2; [3]) of 103 nM.

Compound CCC(=O)O[C@H]1[C@@H](OC(=O)CC)[C@](C#N)(c2ccc3c(N)ncnn23)O[C@@H]1COP(=O)(N[C@@H](C)C(=O)OC1CCC1)Oc1ccc(C2CC2)cc1 (single isomer, unassigned) [Example 54a] has an EC50 [1, 4] of 13.1 nM and an EC50 (SARS-CoV-2; [3]) of 102 nM.

CCC(=O)O[C@H]1[C@@H](OC(=O)CC)[C@](C#N)(c2ccc3c(N)ncnn23)O[C@@H]1COP(=O)(N[C@@H](C)C(=O)OC1CCC1)Oc1ccc(C2CC2)cc1 (single isomer, unassigned) [Example 54b] was tested, and the EC50 [1, 2] was 20.9 nM and the EC50 (SARS-CoV-2; [5]) was 164 nM.

Work on CCC(CC)COC(=O)[C@H](C)NP(=O)(OC[C@H]1O[C@@](C#N)(c2ccc3c(N)ncnn23)[C@H](OC(C)=O)[C@@H]1OC(C)=O)Oc1cccc2ccccc12 (single isomer, unassigned) [Example 78a] yielded an EC50 [1, 2] of 65.2 nM and an EC50 (SARS-CoV-2; [5]) of 117 nM.

For CCC(=O)O[C@H]1[C@@H](OC(=O)CC)[C@](C#N)(c2ccc3c(N)ncnn23)O[C@@H]1COP(=O)(N[C@@H](C)C(=O)OCC(CC)CC)Oc1cccc2ccccc12 (single isomer, unassigned) [Example 79a], the EC50 [1, 2] was 61.2 nM and the EC50 (SARS-CoV-2; [5]) was 126 nM.

In the case of CCC(=O)O[C@H]1[C@@H](OC(=O)CC)[C@](C#N)(c2ccc3c(N)ncnn23)O[C@@H]1COP(=O)(N[C@@H](C)C(=O)OC1CC2(CCC2)C1)Oc1cccc2ccccc12 (single isomer, unassigned) [Example 87a], the EC50 [1, 2] is reported as 31.1 nM and the EC50 (SARS-CoV-2; [5]) is reported as 60.2 nM.

Compound C[C@H](NP(=O)(OC[C@H]1O[C@@](C#N)(c2ccc3c(N)ncnn23)[C@H](O)[C@@H]1O)Oc1cccc2ccccc12)C(=O)OC1CCC1 (single isomer, unassigned) [Intermediate P7a-2] has an EC50 [1, 2] of 65.1 nM and an EC50 (SARS-CoV-2; Severe acute respiratory syndrome coronavirus 2, 48 h, read-out: EC50 SARS CoV2, A549-hACE2 cells, SARS-CoV2-Nano, MOI 0.025, 48 h) of 275 nM.

Work on C[C@H](NP(=O)(OC[C@H]1O[C@@](C#N)(c2ccc3c(N)ncnn23)[C@H](O)[C@@H]1O)Oc1ccc(C(C)(C)C)cc1)C(=O)OCC1CCC1 (stereo partly drawn) [Example 59, cyclobutylmethyl (2S)-2-[[[(2R,3S,4R,5R)-5-(4-aminopyrrolo[2,1-f][1,2,4]triazin-7-yl)-5-cyano-3,4-dihydroxy-tetrahydrofuran-2-yl]methoxy-(4-tert-butylphenoxy)phosphoryl]amino]propanoate] yielded an EC50 [1, 4] of 25.3 nM and an EC50 (SARS-CoV-2; [3]) of 160 nM.

CC(C)C(=O)O[C@H]1[C@@H](OC(=O)C(C)C)[C@](C#N)(c2ccc3c(N)ncnn23)O[C@@H]1COP(=O)(N[C@@H](C)C(=O)OCC1CCC1)Oc1ccc(C(C)(C)C)cc1 (stereo partly drawn) [Example 60, [(2R,3R,4R,5R)-5-(4-aminopyrrolo[2,1-f][1,2,4]triazin-7-yl)-2-[[(4-tert-butylphenoxy)-[[(1S)-2-(cyclobutylmethoxy)-1-methyl-2-oxo-ethyl]amino]phosphoryl]oxymethyl]-5-cyano-4-(2-methylpropanoyloxy)tetrahydrofuran-3-yl] 2-methylpropanoate] was tested, and the EC50 [1, 4] was 64 nM and the EC50 (SARS-CoV-2; [3]) was 180 nM.

For CC(C)C(=O)O[C@H]1[C@@H](OC(=O)C(C)C)[C@](C#N)(c2ccc3c(N)ncnn23)O[C@@H]1COP(=O)(N[C@@H](C)C(=O)OC1CC2(CCC2)C1)Oc1ccc(C(C)(C)C)cc1 (stereo partly drawn) [Example 66, [(2R,3R,4R,5R)-5-(4-aminopyrrolo[2,1-f][1,2,4]triazin-7-yl)-2-[[(4-tert-butylphenoxy)-[[(1S)-1-methyl-2-oxo-2-spiro[3.3]heptan-2-yloxy-ethyl]amino]phosphoryl]oxymethyl]-5-cyano-4-(2-methylpropanoyloxy)tetrahydrofuran-3-yl] 2-methylpropanoate], the EC50 [1, 4] was 61.9 nM and the EC50 (SARS-CoV-2; [3]) was 207 nM.

Work on CCOCCOCCOC(=O)[C@H](C)NP(=O)(OC[C@H]1O[C@@](C#N)(c2ccc3c(N)ncnn23)[C@H](OC(=O)C(C)C)[C@@H]1OC(=O)C(C)C)Oc1ccc(C(C)(C)C)cc1 (stereo partly drawn) [Example 115, (2R,3R,4R,5R)-2-(4-aminopyrrolo[2,1-f][1,2,4]triazin-7-yl)-5-((((4-(tert-butyl)phenoxy)(((S)-1-(2-(2-ethoxyethoxy)ethoxy)-1-oxopropan-2-yl)amino)phosphoryl)oxy)methyl)-2-cyanotetrahydrofuran-3,4-diyl bis(2-methylpropanoate)] yielded an EC50 [1, 4] of 62.6 nM.

CCCCCCOC(=O)[C@H](Cc1ccccc1)NP(=O)(OC[C@H]1O[C@@](C#N)(c2ccc3c(N)ncnn23)[C@H](O)[C@@H]1O)Oc1ccc(C(C)(C)C)cc1 (stereo partly drawn) [Example 119, hexyl ((((2R,3S,4R,5R)-5-(4-aminopyrrolo[2,1-f][1,2,4]triazin-7-yl)-5-cyano-3,4-dihydroxytetrahydrofuran-2-yl)methoxy)(4-(tert-butyl)phenoxy)phosphoryl)-L-phenylalaninate] showed an EC50 [1, 4] of 559 nM.

With CCCCCCOC(=O)[C@H](C)NP(=O)(OC[C@H]1O[C@@](C#N)(c2ccc3c(N)ncnn23)[C@H](O)[C@@H]1O)Oc1ccc(C(C)(C)C)cc1 (stereo partly drawn) [Example 120, hexyl ((((2R,3S,4R,5R)-5-(4-aminopyrrolo[2,1-f][1,2,4]triazin-7-yl)-5-cyano-3,4-dihydroxytetrahydrofuran-2-yl)methoxy)(4-(tert-butyl)phenoxy)phosphoryl)-L-alaninate] the EC50 [1, 4] was 73.9 nM.

In the case of CCCCCCOC(=O)[C@H](Cc1ccccc1)NP(=O)(OC[C@H]1O[C@@](C#N)(c2ccc3c(N)ncnn23)[C@H](OC(=O)C(C)C)[C@@H]1OC(=O)C(C)C)Oc1ccc(C(C)(C)C)cc1 (stereo partly drawn) [Example 123, (2R,3R,4R,5R)-2-(4-aminopyrrolo[2,1-f][1,2,4]triazin-7-yl)-5-((((4-(tert-butyl)phenoxy)(((S)-1-(hexyloxy)-1-oxo-3-phenylpropan-2-yl)amino)phosphoryl)oxy)methyl)-2-cyanotetrahydrofuran-3,4-diyl bis(2-methylpropanoate)], the EC50 [1, 4] is reported as 63.7 nM.

In the case of CCOC(=O)O[C@H]1[C@@H](OC(=O)OCC)[C@](C#N)(c2ccc3c(N)ncnn23)O[C@@H]1COP(=O)(N[C@@H](C)C(=O)OCC)Oc1ccc(C(C)(C)C)cc1 (stereo partly drawn) [Example 124, ethyl ((((2R,3R,4R,5R)-5-(4-aminopyrrolo[2,1-f][1,2,4]triazin-7-yl)-5-cyano-3,4-bis((ethoxycarbonyl)oxy)tetrahydrofuran-2-yl)methoxy)(4-(tert-butyl)phenoxy)phosphoryl)-L-alaninate], the EC50 [1, 4] is reported as 67.1 nM.

For CCCCCCOC(=O)[C@H](C)NP(=O)(OC[C@H]1O[C@@](C#N)(c2ccc3c(N)ncnn23)[C@H](OC(=O)C(C)C)[C@@H]1OC(=O)C(C)C)Oc1ccc(C(C)(C)C)cc1 (stereo partly drawn) [Example 125, (2R,3R,4R,5R)-2-(4-aminopyrrolo[2,1-f][1,2,4]triazin-7-yl)-5-((((4-(tert-butyl)phenoxy)(((S)-1-(hexyloxy)-1-oxopropan-2-yl)amino)phosphoryl)oxy)methyl)-2-cyanotetrahydrofuran-3,4-diyl bis(2-methylpropanoate)], the EC50 [1, 4] was 21.1 nM.

Work on CCOC(=O)O[C@H]1[C@@H](OC(=O)OCC)[C@](C#N)(c2ccc3c(N)ncnn23)O[C@@H]1CO[P@@](=O)(N[C@@H](C)C(=O)OCC(CC)CC)Oc1ccccc1 [Example 127, 2-ethylbutyl ((S)-(((2R,3R,4R,5R)-5-(4-aminopyrrolo[2,1-f][1,2,4]triazin-7-yl)-5-cyano-3,4-bis((ethoxycarbonyl)oxy)tetrahydrofuran-2-yl)methoxy)(phenoxy)phosphoryl)-L-alaninate] yielded an EC50 [1, 4] of 34.1 nM.

Compound COC(C)(C)COC(=O)[C@H](C)N[P@](=O)(OC[C@H]1O[C@@](C#N)(c2ccc3c(N)ncnn23)[C@H](OC(=O)CC(C)C)[C@@H]1OC(=O)CC(C)C)Oc1ccccc1 [Example 168, (2R,3R,4R,5R)-2-(4-aminopyrrolo[2,1-f][1,2,4]triazin-7-yl)-2-cyano-5-((((S)—(((S)-1-(2-methoxy-2-methylpropoxy)-1-oxopropan-2-yl)amino)(phenoxy)phosphoryl)oxy)methyl)tetrahydrofuran-3,4-diyl bis(3-methylbutanoate)] has an EC50 [1, 4] of 111 nM.

Work on CCC(=O)O[C@H]1[C@@H](OC(=O)CC)[C@](C#N)(c2ccc3c(N)ncnn23)O[C@@H]1CO[P@@](=O)(N[C@@H](C)C(=O)OCC(C)(C)OC)Oc1ccccc1 [Example 169, (2R,3R,4R,5R)-2-(4-aminopyrrolo[2,1-f][1,2,4]triazin-7-yl)-2-cyano-5-((((S)—(((S)-1-(2-methoxy-2-methylpropoxy)-1-oxopropan-2-yl)amino)(phenoxy)phosphoryl)oxy)methyl)tetrahydrofuran-3,4-diyl Dipropionate] yielded an EC50 [1, 4] of 62.9 nM.

CCC(C)(C)COC(=O)[C@H](C)NP(=O)(OC[C@H]1O[C@@](C#N)(c2ccc3c(N)ncnn23)[C@H](O)[C@@H]1O)Oc1ccccc1 (stereo partly drawn) [Intermediate D9, 2,2-dimethylbutyl ((((2R,3S,4R,5R)-5-(4-aminopyrrolo[2,1-f][1,2,4]triazin-7-yl)-5-cyano-3,4-dihydroxytetrahydrofuran-2-yl)methoxy)(phenoxy)phosphoryl)-L-alaninate] gave an EC50 [1, 4] of 65.4 nM.

In the case of C[C@H](NP(=O)(OC[C@H]1O[C@@](C#N)(c2ccc3c(N)ncnn23)[C@H](O)[C@@H]1O)Oc1ccccc1)C(=O)OCCC(C)(C)C (stereo partly drawn) [Intermediate P8a, 3,3-dimethylbutyl ((((2R,3S,4R,5R)-5-(4-aminopyrrolo[2,1-f][1,2,4]triazin-7-yl)-5-cyano-3,4-dihydroxytetrahydrofuran-2-yl)methoxy)(phenoxy)phosphoryl)-L-alaninate], the EC50 [1, 4] is reported as 20.3 nM.

CCC(C)(C)CCOC(=O)[C@H](C)NP(=O)(OC[C@H]1O[C@@](C#N)(c2ccc3c(N)ncnn23)[C@H](O)[C@@H]1O)Oc1ccccc1 (stereo partly drawn) [Intermediate S4, 3,3-dimethylpentyl ((((2R,3S,4R,5R)-5-(4-aminopyrrolo[2,1-f][1,2,4]triazin-7-yl)-5-cyano-3,4-dihydroxytetrahydrofuran-2-yl)methoxy)(phenoxy)phosphoryl)-L-alaninate] gave an EC50 [1, 4] of 14.9 nM.
